The results in this text go back to patent US20240208992A1, “MACROCYCLES AS CFTR MODULATORS” (Idorsia Pharmaceuticals Ltd, priority 2021, published 2024).

The assay deals with human F508del-CFTR (Homo sapiens, UniProt P13569, DEL508-508). The assay is described as follows: F508del-CFTR cell surface expression (corrector activity), DiscoveRx ß-galactosidase complementation chemiluminescence assay in recombinant U2OS cell line.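 As to all read-outs here: U2OS cells co-expressing ProLink-tagged F508del-CFTR and a membrane-anchored enzyme acceptor, where more surface CFTR restores β-galactosidase activity measured by chemiluminescence.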 Particulars: U2OS cells, 16h compound incubation; for EC50: EC50, F508del-CFTR cell surface expression, geomean of several measurements; for Emax: U2OS, in relation to the Emax of the corrector lumacaftor (=100%), arithmetic mean.
Chain of human F508del-CFTR (P13569 with tags, fused parts or gaps DEL508-508): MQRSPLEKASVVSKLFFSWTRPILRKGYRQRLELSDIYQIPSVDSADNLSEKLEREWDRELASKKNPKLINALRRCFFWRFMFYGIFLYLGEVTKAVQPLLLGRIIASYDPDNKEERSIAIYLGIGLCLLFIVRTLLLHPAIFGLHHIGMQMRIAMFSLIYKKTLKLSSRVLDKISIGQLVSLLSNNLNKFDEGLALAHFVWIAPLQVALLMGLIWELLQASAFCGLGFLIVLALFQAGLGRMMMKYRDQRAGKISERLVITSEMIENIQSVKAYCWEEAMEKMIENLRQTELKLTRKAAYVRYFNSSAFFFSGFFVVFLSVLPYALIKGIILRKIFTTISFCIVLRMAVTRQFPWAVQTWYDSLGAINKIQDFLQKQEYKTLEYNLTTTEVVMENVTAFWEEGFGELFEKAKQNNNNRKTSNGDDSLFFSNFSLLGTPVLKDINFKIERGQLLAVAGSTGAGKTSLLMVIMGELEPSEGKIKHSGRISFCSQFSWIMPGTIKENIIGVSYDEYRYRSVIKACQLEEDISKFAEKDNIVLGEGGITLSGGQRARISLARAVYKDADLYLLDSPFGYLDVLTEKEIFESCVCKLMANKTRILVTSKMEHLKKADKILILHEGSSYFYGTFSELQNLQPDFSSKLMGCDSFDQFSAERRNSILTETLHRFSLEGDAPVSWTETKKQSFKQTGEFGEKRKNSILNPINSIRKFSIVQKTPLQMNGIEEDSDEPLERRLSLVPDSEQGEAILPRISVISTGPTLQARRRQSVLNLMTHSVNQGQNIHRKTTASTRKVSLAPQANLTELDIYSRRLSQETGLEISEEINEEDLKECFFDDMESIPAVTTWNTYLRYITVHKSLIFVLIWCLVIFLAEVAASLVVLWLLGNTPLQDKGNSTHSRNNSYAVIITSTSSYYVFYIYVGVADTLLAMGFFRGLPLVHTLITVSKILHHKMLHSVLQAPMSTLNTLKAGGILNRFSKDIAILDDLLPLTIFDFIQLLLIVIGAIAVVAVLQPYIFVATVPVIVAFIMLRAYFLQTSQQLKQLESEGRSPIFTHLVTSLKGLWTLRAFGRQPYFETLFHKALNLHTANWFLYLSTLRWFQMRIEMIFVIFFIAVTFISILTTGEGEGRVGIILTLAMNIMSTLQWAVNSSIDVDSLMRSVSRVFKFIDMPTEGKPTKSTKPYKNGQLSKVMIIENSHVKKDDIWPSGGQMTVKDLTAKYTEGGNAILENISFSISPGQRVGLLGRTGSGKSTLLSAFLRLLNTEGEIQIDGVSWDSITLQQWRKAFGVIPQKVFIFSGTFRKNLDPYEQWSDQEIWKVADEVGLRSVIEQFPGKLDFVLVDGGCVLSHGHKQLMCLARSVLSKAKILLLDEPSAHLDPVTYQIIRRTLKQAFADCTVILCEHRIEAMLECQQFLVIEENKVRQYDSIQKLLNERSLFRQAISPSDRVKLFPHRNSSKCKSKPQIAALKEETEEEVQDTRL

What is called EC50 is the concentration giving half of the maximal effect. For orientation: Emax means the greatest response seen or fitted, relative to the assay's reference. As to `COc1noc(CCNC(=O)[C@@H]2CC(=O)N(C)[C@@H](CC(C)C)C(=O)N(C)[C@H](Cc3nc(C(F)(F)F)no3)C(=O)N[C@H](Cc3ccccc3)COc3cc(C)c4ncccc4c3C(=O)N2)n1` [Example 927, (3S,7S,10R,13R)-13-benzyl-7-isobutyl-N-(2-(3-methoxy-1,2,4-oxadiazol-5-yl)ethyl)-6,9,17-trimethyl-1,5,8,11-tetraoxo-10-((3-(trifluoromethyl)-1,2,4-oxadiazol-5-yl)methyl)-1,2,3,4,5,6,7,8,9,10,11,12,13,14-tetradecahydro-[1]oxa[4,7,10,14]tetraazacycloheptadecino[16,17-f]quinoline-3-carboxamide], the EC50 came out at 27 nM and the Emax turned out to be 492%.

As to `Cc1cc2c(c3cccnc13)C(=O)N[C@H](C(=O)NCCn1nnc(C3CC3)n1)CC(=O)N(C)[C@@H](CC(C)C)C(=O)N1CCCCC1C(=O)N[C@H](Cc1ccccc1)CO2` (stereo partly drawn) [Example 928, (9S,13S,19aS,22R)-22-benzyl-N-(2-(5-cyclopropyl-2H-tetrazol-2-yl)ethyl)-13-isobutyl-2,12-dimethyl-7,11,14,20-tetraoxo-7,8,9,10,11,12,13,14,17,18,19,19a,20,21,22,23-hexadecahydro-16H-pyrido[2′,1′:6,7][1]oxa[4,7,10,14]tetraazacycloheptadecino[16,17-f]quinoline-9-carboxamide], the EC50 worked out at 971 nM and the Emax is 247%.

In the case of `CCOCC[C@@H]1C(=O)N[C@H](Cc2ccccc2)COc2ccc3ncc(F)cc3c2C(=O)N[C@H](C(=O)NCCc2nc(OC)no2)CC(=O)N(C)[C@@H](CC(C)C)C(=O)N1C` [Example 929, (3S,7S,10R,13R)-13-benzyl-10-(2-ethoxyethyl)-20-fluoro-7-isobutyl-N-(2-(3-methoxy-1,2,4-oxadiazol-5-yl)ethyl)-6,9-dimethyl-1,5,8,11-tetraoxo-1,2,3,4,5,6,7,8,9,10,11,12,13,14-tetradecahydro-[1]oxa[4,7,10,14]tetraazacycloheptadecino[16,17-f]quinoline-3-carboxamide], the EC50 amounted to 306 nM and the Emax was 513%.

As for `COc1noc(CCNC(=O)[C@@H]2CC(=O)N(C)[C@@H](CC(C)C)C(=O)N3CCCC[C@@H]3C(=O)N[C@H](Cc3ccccc3)COc3cnc4ccc(F)cc4c3C(=O)N2)n1` [Example 930, (9S,13S,19aR,22R)-22-benzyl-5-fluoro-13-isobutyl-N-(2-(3-methoxy-1,2,4-oxadiazol-5-yl)ethyl)-12-methyl-7,11,14,20-tetraoxo-7,8,9,10,11,12,13,14,17,18,19,19a,20,21,22,23-hexadecahydro-16H-pyrido[2′,1′:6,7][1]oxa[4,7,10,14]tetraazacycloheptadecino[17,16-c]quinoline-9-carboxamide], the EC50 was 142 nM and the Emax was 460%.

As for `COc1cc(CCNC(=O)[C@@H]2CC(=O)N(C)[C@@H](CC(C)C)C(=O)N(C)[C@H](CC(F)F)C(=O)N[C@H](Cc3ccccc3)COc3ccc4cnc(C)cc4c3C(=O)N2)on1` [Example 931, (3S,7S,10R,13R)-13-benzyl-10-(2,2-difluoroethyl)-7-isobutyl-N-(2-(3-methoxyisoxazol-5-yl)ethyl)-6,9,20-trimethyl-1,5,8,11-tetraoxo-1,2,3,4,5,6,7,8,9,10,11,12,13,14-tetradecahydro-[1]oxa[4,7,10,14]tetraazacycloheptadecino[16,17-f]isoquinoline-3-carboxamide], the EC50 is 298 nM and the Emax worked out at 507%.

As for `COc1noc(CCNC(=O)[C@@H]2CC(=O)N(C)[C@@H](CC(C)C)C(=O)N(C)[C@H](CC(F)F)C(=O)N[C@H](Cc3ccccc3)COc3ccc4cnc(C)cc4c3C(=O)N2)n1` [Example 932, (3S,7S,10R,13R)-13-benzyl-10-(2,2-difluoroethyl)-7-isobutyl-N-(2-(3-methoxy-1,2,4-oxadiazol-5-yl)ethyl)-6,9,20-trimethyl-1,5,8,11-tetraoxo-1,2,3,4,5,6,7,8,9,10,11,12,13,14-tetradecahydro-[1]oxa[4,7,10,14]tetraazacycloheptadecino[16,17-f]isoquinoline-3-carboxamide], the EC50 was found to be 373 nM and the Emax was 491%.

With `Cc1cc2c3c(ccc2cn1)OC[C@@H](Cc1ccccc1)NC(=O)[C@@H](CC(F)F)N(C)C(=O)[C@H](CC(C)C)N(C)C(=O)C[C@@H](C(=O)NCCn1nnc(C2CC2)n1)NC3=O` [Example 933, (3S,7S,10R,13R)-13-benzyl-N-(2-(5-cyclopropyl-2H-tetrazol-2-yl)ethyl)-10-(2,2-difluoroethyl)-7-isobutyl-6,9,20-trimethyl-1,5,8,11-tetraoxo-1,2,3,4,5,6,7,8,9,10,11,12,13,14-tetradecahydro-[1]oxa[4,7,10,14]tetraazacycloheptadecino[16,17-f]isoquinoline-3-carboxamide], the half-maximal effective concentration (EC50) worked out at 399 nM and the Emax worked out at 485%.

As to `COc1noc(CCNC(=O)[C@@H]2CC(=O)N(C)[C@@H](CC(C)C)C(=O)N(C)[C@H](Cc3nc(C(F)(F)F)no3)C(=O)N[C@H](Cc3ccccc3)COc3ccc4ncc(F)cc4c3C(=O)N2)n1` [Example 934, (3S,7S,10R,13R)-13-benzyl-20-fluoro-7-isobutyl-N-(2-(3-methoxy-1,2,4-oxadiazol-5-yl)ethyl)-6,9-dimethyl-1,5,8,11-tetraoxo-10-((3-(trifluoromethyl)-1,2,4-oxadiazol-5-yl)methyl)-1,2,3,4,5,6,7,8,9,10,11,12,13,14-tetradecahydro-[1]oxa[4,7,10,14]tetraazacycloheptadecino[16,17-f]quinoline-3-carboxamide], the EC50 was found to be 37 nM and the Emax worked out at 528%.

Regarding `Cc1cc2c(c3cccnc13)C(=O)N[C@H](C(=O)NCCc1noc(C3CC3)n1)CC(=O)N(C)[C@@H](CC(C)C)C(=O)N(C)[C@H](Cc1nc(C(F)(F)F)no1)C(=O)N[C@H](Cc1ccccc1)CO2` [Example 935, (3S,7S,10R,13R)-13-benzyl-N-(2-(5-cyclopropyl-1,2,4-oxadiazol-3-yl)ethyl)-7-isobutyl-6,9,17-trimethyl-1,5,8,11-tetraoxo-10-((3-(trifluoromethyl)-1,2,4-oxadiazol-5-yl)methyl)-1,2,3,4,5,6,7,8,9,10,11,12,13,14-tetradecahydro-[1]oxa[4,7,10,14]tetraazacycloheptadecino[16,17-f]quinoline-3-carboxamide], the concentration for a half-maximal effect (EC50) turned out to be 24 nM and the Emax was 496%.

For the molecule `Cc1cc2c(c3cccnc13)C(=O)N[C@H](C(=O)NCCc1nc(C3CC3)no1)CC(=O)N(C)[C@@H](CC(C)C)C(=O)N(C)[C@H](Cc1nc(C(F)(F)F)no1)C(=O)N[C@H](Cc1ccccc1)CO2` [Example 936, (3S,7S,10R,13R)-13-benzyl-N-(2-(3-cyclopropyl-1,2,4-oxadiazol-5-yl)ethyl)-7-isobutyl-6,9,17-trimethyl-1,5,8,11-tetraoxo-10-((3-(trifluoromethyl)-1,2,4-oxadiazol-5-yl)methyl)-1,2,3,4,5,6,7,8,9,10,11,12,13,14-tetradecahydro-[1]oxa[4,7,10,14]tetraazacycloheptadecino[16,17-f]quinoline-3-carboxamide], the EC50 is 26 nM and the maximum response (Emax) turned out to be 469%.

On to `CC(C)C[C@H]1C(=O)N(C)[C@H](Cc2nc(C(F)(F)F)no2)C(=O)N[C@H](Cc2ccccc2)COc2ccc3ncc(F)cc3c2C(=O)N[C@H](C(=O)NCCn2nc3ccccc3n2)CC(=O)N1C` [Example 937, (3S,7S,10R,13R)-N-(2-(2H-benzo[d][1,2,3]triazol-2-yl)ethyl)-13-benzyl-20-fluoro-7-isobutyl-6,9-dimethyl-1,5,8,11-tetraoxo-10-((3-(trifluoromethyl)-1,2,4-oxadiazol-5-yl)methyl)-1,2,3,4,5,6,7,8,9,10,11,12,13,14-tetradecahydro-[1]oxa[4,7,10,14]tetraazacycloheptadecino[16,17-f]quinoline-3-carboxamide], for which the EC50 is 59 nM and the Emax is 460%.

For `COc1noc(CCNC(=O)[C@@H]2CC(=O)N(C)[C@@H](CC(C)C)C(=O)N(C)[C@H](CC(F)(F)F)C(=O)N[C@H](Cc3ccccc3)COc3ccc4cnc(C)cc4c3C(=O)N2)n1` [Example 938, (3S,7S,10R,13R)-13-benzyl-7-isobutyl-N-(2-(3-methoxy-1,2,4-oxadiazol-5-yl)ethyl)-6,9,20-trimethyl-1,5,8,11-tetraoxo-10-(2,2,2-trifluoroethyl)-1,2,3,4,5,6,7,8,9,10,11,12,13,14-tetradecahydro-[1]oxa[4,7,10,14]tetraazacycloheptadecino[16,17-f]isoquinoline-3-carboxamide], the 50% effective concentration (EC50) is 245 nM and the Emax stood at 498%.

For the molecule `COc1noc(CCNC(=O)[C@@H]2CC(=O)N(C)[C@@H](CC(C)C)C(=O)N(C)[C@@H](CC(F)(F)F)C(=O)N[C@H](Cc3ccccc3)COc3ccc4cnc(C)cc4c3C(=O)N2)n1` [Example 939, (3S,7S,10S,13R)-13-benzyl-7-isobutyl-N-(2-(3-methoxy-1,2,4-oxadiazol-5-yl)ethyl)-6,9,20-trimethyl-1,5,8,11-tetraoxo-10-(2,2,2-trifluoroethyl)-1,2,3,4,5,6,7,8,9,10,11,12,13,14-tetradecahydro-[1]oxa[4,7,10,14]tetraazacycloheptadecino[16,17-f]isoquinoline-3-carboxamide], the EC50 was found to be 737 nM and the Emax stood at 288%.

On to `COc1noc(CCNC(=O)[C@@H]2CC(=O)N(C)[C@@H](CC(C)C)C(=O)N(C)[C@@H](CC(F)(F)F)C(=O)N[C@H](Cc3ccccc3)COc3ccc4ncc(F)cc4c3C(=O)N2)n1` [Example 940, (3S,7S,10S,13R)-13-benzyl-20-fluoro-7-isobutyl-N-(2-(3-methoxy-1,2,4-oxadiazol-5-yl)ethyl)-6,9-dimethyl-1,5,8,11-tetraoxo-10-(2,2,2-trifluoroethyl)-1,2,3,4,5,6,7,8,9,10,11,12,13,14-tetradecahydro-[1]oxa[4,7,10,14]tetraazacycloheptadecino[16,17-f]quinoline-3-carboxamide], for which the EC50 worked out at 673 nM and the maximum response (Emax) stood at 298%.
